From publication PMC11375437, “Selective labelling of GBA2 in cells with fluorescent β-D-arabinofuranosyl cyclitol aziridines” (Chemical Science, 2024)

Target: T1, GBA2 (Homo sapiens, UniProt Q9HCG7)
T1 sequence (Q9HCG7 1-927): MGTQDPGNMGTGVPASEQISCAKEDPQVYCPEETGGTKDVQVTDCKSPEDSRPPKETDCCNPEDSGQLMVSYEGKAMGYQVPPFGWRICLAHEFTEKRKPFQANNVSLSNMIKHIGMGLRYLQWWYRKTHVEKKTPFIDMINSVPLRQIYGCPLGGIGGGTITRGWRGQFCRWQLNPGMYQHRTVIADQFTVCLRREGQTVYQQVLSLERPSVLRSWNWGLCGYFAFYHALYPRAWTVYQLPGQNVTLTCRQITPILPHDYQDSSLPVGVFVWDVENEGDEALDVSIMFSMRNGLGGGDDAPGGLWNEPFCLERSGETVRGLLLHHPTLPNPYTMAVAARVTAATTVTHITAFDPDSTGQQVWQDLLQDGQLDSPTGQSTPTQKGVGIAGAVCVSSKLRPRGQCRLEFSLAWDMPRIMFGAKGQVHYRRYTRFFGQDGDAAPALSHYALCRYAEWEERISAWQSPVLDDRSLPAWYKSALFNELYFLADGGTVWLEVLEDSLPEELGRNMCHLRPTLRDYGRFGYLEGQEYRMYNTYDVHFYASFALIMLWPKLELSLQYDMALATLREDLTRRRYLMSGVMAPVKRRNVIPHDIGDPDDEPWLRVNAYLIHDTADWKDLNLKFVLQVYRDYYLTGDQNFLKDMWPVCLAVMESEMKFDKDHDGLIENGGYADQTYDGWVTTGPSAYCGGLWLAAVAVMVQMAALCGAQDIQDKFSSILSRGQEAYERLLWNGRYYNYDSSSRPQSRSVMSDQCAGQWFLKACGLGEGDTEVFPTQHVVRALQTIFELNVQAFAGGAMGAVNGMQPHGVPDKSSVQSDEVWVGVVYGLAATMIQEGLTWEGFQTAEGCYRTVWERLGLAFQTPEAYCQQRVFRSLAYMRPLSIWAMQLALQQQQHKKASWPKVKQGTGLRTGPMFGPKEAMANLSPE
Assay: Confocal microscopy of ABP 4 staining after inhibitor pre-treatment in GBA2 overexpressing cells
Format: cell-based
Design: expressed in transfected cells; host or cells: HEK293T GBA1/GBA2 KO (CRISPR/Cas9), GBA2 overexpressed
Conditions: 16 h pre-treatment (21 100 nM, 22 500 nM), then ABP 4 50 nM 2 h; GBA2 OE HEK293T cells
Method: To confirm the specific staining of GBA2, cells overexpressing GBA2 were pre-treated with either the specific GBA1 inhibitor 21 [32] or the GBA1/GBA2 inhibitor 22.[36]
Figure S11. Confocal fluorescence microscopy of A) HEK293T wild-type (WT), GBA2 overexpression (OE) or GBA1/2 knock out (KO) + GBA2 overexpression (OE) cells. Cells were pre-treated with either DMSO, GBA1/GBA2 inhibitor 22 or GBA1 selective inhibitor 21, and afterwards incubated with β-D-Araf aziridine BODIPY-red ABP 4 (50 nM) for 2 h. Subsequently, cells were fixed and stained for GBA1 (Green) with an anti-GBA1 antibody. B) RAW264.7 cells pre-treated with either DMSO or GBA1/GBA2 inhibitor 22 and incubated β-D-Araf aziridine ABP 4 for (50 nM) for 2 h. […]
Figure S12. […] Competitive ABPP allow for the determination of apparent IC50 values by quantification of the fluorescence intensity of ABP 7 as described in experimental section. […]
2.12 Reactivity of β-D-Araf aziridines towards GBA2 orthologue in other species β-D-Araf aziridine ABP 3-5 or ABP 7 was incubated with homogenates of zebrafish (Danio rerio) larvae or mice brain for 1 h at 37 °C. […] The zebrafish homogenates were passed through a desalting column (in the same way as described for the irreversibility evaluation above) to remove interference from biological pigments when scanning at λEX 473 nm and λEM ≥ 510 nm for BODIPY green fluorescence. […]

CCCCCN1[C@@H]2[C@H](CO)[C@@H](O)[C@H](O)[C@@H](O)[C@@H]21 (stereo partly shown) [Inhibitor 22]
Effect of pre-treatment on ABP 4 staining of GBA2: completely abrogated
